Assays:
Format in all cases: cell-based
[1] = test system: Clostridium ljungdahlii; assay: Formation of acetic acid and ethanol from synthesis gas with Clostridium ljungdahlii and refeeding of cysteine
Protocol: For the biotransformation of hydrogen and carbon dioxide to acetic acid and ethanol the homoacetogenic bacterium Clostridium ljungdahlii was cultivated on synthesis gas with refeeding of cysteine. All cultivation steps were carried out under anaerobic conditions in pressure-resistant glass bottles that can be closed airtight with a butyl rubber stopper.
The chemolithoautotrophic cultivation was carried out in a 1 L pressure-resistant glass bottle at 37° C., 100 rpm and a ventilation rate of 3 L/h with a premixed gas with 67% H2, 33% CO2 in an open water bath shaker for 69 h till OD600nm>0.4. The gas was discharged into the medium through a sparger with a pore size of 10 μm, which was mounted in the center of the reactors. Then the cell suspension was centrifuged and the cell pellet was resuspended in fresh CGF1 Medium.
For the production phase, as many washed cells from the preculture of C. ljungdahlii as necessary for an OD600nm of 0.2 were added to 100 ml mineral medium (CGF1 medium, pH 6.5, 1.4 g/L KOH, 2 g/L (NH4)2SO4, 1 g/L KH2PO4, 1 g/L K2HPO4, 10 mg/L FeSO4×7H2O, 3.8 mg/L MnSO4×1H2O, 246 mg/L MgSO4×7H2O, aerated for 30 min with a premixed gas with 67% H2 and 33% CO2). […] The cultivation was carried out in 500 mL pressure-resistant glass bottles at 37° C., 150 rpm in an open water bath shaker for 163 h which were aerated to an overpressure of 0.8 bar with a premixed gas with 67% H2, 33% CO2 one time a day. The pH was hold >5.0 by intermittent additions of a 140 g/L KOH solution. During the cultivation several 5 mL samples were taken to determinate OD600nm, pH und product formation. […] The determination of the product concentrations was performed by semiquantitative 1H-NMR spectroscopy. As an internal quantification standard sodium trimethylsilylpropionate (T (M) SP) was used.

[2] = test system: Clostridium autoethanogenum together with Clostridium kluyveri in a co-culture; assay: Continuous co-culture of Clostridium autoethanogenum and Clostridium kluyveri with low potassium thioacetate concentration
Protocol: (§1) The homoacetogenic bacterium Clostridium autoethanogenum was cultivated together with the chain elongating bacterium Clostridium kluyveri in a co-culture on synthesis gas in a mineral medium with potassium thioacetate as reduced sulfur source. The cultivation was carried out under anaerobic conditions in a pressure-resistant stainless steel bubble column loop reactor.
(§2) The cultivation was run at 37° C. and an overpressure of 2 bar as a continuous fermentation with continuous feeding of 300 L/h of a mixture of water, substrates, salts, trace elements and vitamins. The pH was automatically hold at 5.80 with ammonia feeding. The outlet stream of 300 L/h out of the fermenter was for 98.2% as permeate with cell retention and for 1.8% as purge without cell retention.
(§3) The culture was previously inoculated with cells from fresh cultures of C. autoethanogenum and C. kluyveri and was already running since >10.000 h full continuously as stable coculture at an optical density (OD600nm) of ˜ 9.0. Fresh medium was continuously fed into the reactor and fermentation broth continuously removed from the reactor with a dilution rate of 2.8 d^−1. During cultivation several 5 mL samples were taken to determinate OD600nm, PH und product formation. The determination of the product concentrations was performed by semiquantitative 1H-NMR spectroscopy. As an internal quantification standard sodium trimethylsilylpropionate (T (M) SP) was used.

[3] = test system: Clostridium autoethanogenum together with Clostridium kluyveri in a co-culture; assay: Continuous co-culture of Clostridium autoethanogenum and Clostridium kluyveri with high potassium thioacetate concentration
Protocol: as §1, §2
as §3, with “>13.000” for “>10.000”, “11.8.” for “9.0.”

[4] = culture C (refed with L-cysteine-hydrochloride) versus cultures A and B, production phase
[5] = 10.69 mg/L potassium thioacetate in media feed (before decrease)
[6] = 50 h after decreasing potassium thioacetate in media feed to 10% (1.69 mg/L)
[7] = 10.69 mg/L potassium thioacetate in media feed (before increase)
[8] = 50 h, 100 h and 150 h after increasing potassium thioacetate in media feed to 300% (32.07 mg/L)

Cl.N[C@@H](CS)C(=O)O [L-cysteine, L-cysteine-hydrochloride]
OD(600 nm) ([1]; culture A, initial 400 mg/L L-cysteine-hydrochloride, no refeed, 0 h): 0.206 | OD(600 nm) ([1]; culture A, initial 400 mg/L L-cysteine-hydrochloride, no refeed, 18.75 h): 0.232 | OD(600 nm) ([1]; culture A, initial 400 mg/L L-cysteine-hydrochloride, no refeed, 41.5 h): 0.293 | OD(600 nm) ([1]; culture A, initial 400 mg/L L-cysteine-hydrochloride, no refeed, 46.75 h): 0.281 | OD(600 nm) ([1]; culture A, initial 400 mg/L L-cysteine-hydrochloride, no refeed, 65.5 h): 0.324 | OD(600 nm) ([1]; culture A, initial 400 mg/L L-cysteine-hydrochloride, no refeed, 69.5 h): 0.366 | OD(600 nm) ([1]; culture A, initial 400 mg/L L-cysteine-hydrochloride, no refeed, 89.75 h): 0.324 | OD(600 nm) ([1]; culture A, initial 400 mg/L L-cysteine-hydrochloride, no refeed, 163.5 h): 0.339 | OD(600 nm) ([1]; culture B, initial 200 mg/L L-cysteine-hydrochloride, no refeed, 0 h): 0.197 | OD(600 nm) ([1]; culture B, initial 200 mg/L L-cysteine-hydrochloride, no refeed, 18.75 h): 0.261 | OD(600 nm) ([1]; culture B, initial 200 mg/L L-cysteine-hydrochloride, no refeed, 41.5 h): 0.279 | OD(600 nm) ([1]; culture B, initial 200 mg/L L-cysteine-hydrochloride, no refeed, 46.75 h): 0.269 | OD(600 nm) ([1]; culture B, initial 200 mg/L L-cysteine-hydrochloride, no refeed, 65.5 h): 0.271 | OD(600 nm) ([1]; culture B, initial 200 mg/L L-cysteine-hydrochloride, no refeed, 69.5 h): 0.259 | OD(600 nm) ([1]; culture B, initial 200 mg/L L-cysteine-hydrochloride, no refeed, 89.75 h): 0.241 | OD(600 nm) ([1]; culture B, initial 200 mg/L L-cysteine-hydrochloride, no refeed, 163.5 h): 0.237 | cell growth [1, 4]: stronger cell growth than cultures A and B | concentrations of acetate and ethanol [1, 4]: increased more than in culture A and B | OD(600 nm) ([1]; culture C, initial 200 mg/L L-cysteine-hydrochloride, refed 200 mg/L after 18, 41, 65, 89 h, 0 h): 0.209 | OD(600 nm) ([1]; culture C, initial 200 mg/L L-cysteine-hydrochloride, refed 200 mg/L after 18, 41, 65, 89 h, 18.75 h): 0.245 | OD(600 nm) ([1]; culture C, initial 200 mg/L L-cysteine-hydrochloride, refed 200 mg/L after 18, 41, 65, 89 h, 41.5 h): 0.339 | OD(600 nm) ([1]; culture C, initial 200 mg/L L-cysteine-hydrochloride, refed 200 mg/L after 18, 41, 65, 89 h, 46.75 h): 0.335 | OD(600 nm) ([1]; culture C, initial 200 mg/L L-cysteine-hydrochloride, refed 200 mg/L after 18, 41, 65, 89 h, 65.5 h): 0.399 | OD(600 nm) ([1]; culture C, initial 200 mg/L L-cysteine-hydrochloride, refed 200 mg/L after 18, 41, 65, 89 h, 69.5 h): 0.392 | OD(600 nm) ([1]; culture C, initial 200 mg/L L-cysteine-hydrochloride, refed 200 mg/L after 18, 41, 65, 89 h, 89.75 h): 0.431 | OD(600 nm) ([1]; culture C, initial 200 mg/L L-cysteine-hydrochloride, refed 200 mg/L after 18, 41, 65, 89 h, 95.5 h): 0.434 | OD(600 nm) ([1]; culture C, initial 200 mg/L L-cysteine-hydrochloride, refed 200 mg/L after 18, 41, 65, 89 h, 163.5 h): 0.481

CC(=O)[S-].[K+] [potassium thioacetate]
CO2 turnover [2, 5]: 70% | OD(600 nm) [2, 5]: 9.0 | steady state concentration acetate [2, 5]: ~0.90 g/L | steady state concentration butyrate [2, 5]: ~0.91 g/L | steady state concentration ethanol [2, 5]: about 3.27 g/L | steady state concentration hexanoate [2, 5]: ~3.61 g/L | CO2 turnover [2, 6]: 50% | OD(600 nm) [2, 6]: 7.60 | ethanol concentration [2, 6]: 4.37 g/L | steady state concentration acetate [2, 6]: 0.50 g/L | steady state concentration butyrate [2, 6]: 0.53 g/L | steady state concentration hexanoate [2, 6]: 2.41 g/L | steady state concentration acetate [3, 7]: ~1.10 g/L | steady state concentration butyrate [3, 7]: ~1.08 g/L | steady state concentration ethanol [3, 7]: about 2.67 g/L | steady state concentration hexanoate [3, 7]: ~3.75 g/L | optical density (OD600nm) ([3]; 10.69 mg/L potassium thioacetate in media feed (before increase), stable coculture): ~11.8 | CO2 turnover [3, 8]: 70% | OD(600 nm) [3, 8]: 11.80 | steady state concentrations of the educts and products [3, 8]: stayed on the same level
